Results: patent publication US20100203575A1, “In Vitro Beating Heart Model” (INSERM (Institut National de la Sante et de la Recherche …, priority 2007, published 2010)
Read-outs that look alike come from different tables or passages of the source.

Assays:
heart slice cultures [1] = system: heart slice cultures
Protocol: Additional analysis was performed on 3 slices, at 30 days after plating using a confocal laser scanning microscope (Zeiss), following incubation with 5 μM fluo-4 AM (Invitrogen, France) for 20 min at 37° C.
To monitor spontaneous Ca2+ spiking, heart slice cultures, were loaded with 5 μmol/L Fluo-4 AM ester and the temporal change of fluorescent intensity was measured at physiological temperature (37° C.).

heart slice cultures [2] = conditions: 10, 100 nmol/L and 1 μmol/L, 30 days after plating, 37° C., monitored 3 min after stimulation
Protocol: (§1) Cultures were prepared from ventricular sections of 3 day-old rats (Charles River, France) or 8 weeks-old human embyros. The hearts were removed and placed in Phosphate-Buffered Saline (PBS), atria were removed and the ventricles sliced at 1 mm-thickness using a rodent heart matrix (Harvard Apparatus). The heart slices were immediately transferred to a Millicell-CM 0.4 μm membrane (Millipore, France) and the insert placed into a 6 well-plate containing 1 ml of medium.
(§2) The culture medium consisted of DMEM/F12 medium supplemented with 20% Knockout Serum Replacement, 1% non essential amino acids, 2 mM L-glutamine, 0.1 mM β-mercaptoethanol, and 1% PS (Invitrogen, France). Heart slices were maintained for 30-80 days at 37° C. in a humidified atmosphere containing 5% CO2.
(§3) Further functional characterization of the contractile function of ventricular slices was carried out on 24 slices, at 30 days after plating, using a stereomicroscope and a temperature-controlled stage set at 37° C., following incubation with 10, 100nM and 1 μM of epinephrine (Sigma, France). Beating frequency was monitored 3 min after pharmacological stimulation.

human heart slices = conditions: slices from 8 week-old human embryo
Protocol: as §1, §2, §3

## CNC[C@H](O)c1ccc(O)c(O)c1 [epinephrine]
Heart slice cultures [1]; heart slice loaded with fluo-4, confocal analysis
  Ca2+-transient amplitude and frequency: dose-dependent increase in Ca2+-transient amplitude and frequency
Heart slice cultures [1]; tested 10, 100 nmol/L and 1 μmol/L
  concentration giving maximal response: 1 µmol/L
Heart slice cultures [2]
  spontaneous beating frequencies of heart slice: increased the spontaneous beating frequencies of heart slice in dose-response manner
Heart slice cultures [2]; listed as Epinepfrine
  spontaneous beating frequencies of heart slice: increased the frequencies of spontaneous beating in dose-response manner
Human heart slices
  spontaneous beating frequency of human heart slices: increased spontaneous beating frequency of both human heart slices, in a dose-dependent manner
Human heart slices; listed as Epinephrine
  spontaneous beating frequency of human heart slices: increases the frequencies of beating in human heart slices
